Measured values from article PMC5201116, “Bioactive Flavonoids and Catechols as Hif1 and Nrf2 Protein Stabilizers - Implications for Parkinson’s Disease” (Aging and Disease, 2016).

Experiments:
[1] = system: HRE-luciferase reporter (HT22 hippocampal cell line); test: HRE-luc reporter assay; type: cell-based; conditions: Mus musculus, HT-22, 3 h; at 10 µM; read-out: HRE-luc fold activation
Description: A promoter-reporter construct that contained 68 bp of a known hypoxia and HIF-1 regulated gene, enolase, containing a wild type hypoxia response element (HRE, 5’-RCTGT-3’), is a widely used approach for screening for HIF activators of different mechanism of action. A cell-based assay with HRE-luciferase reporter system is based on transfected immortalized hippocampal cell line (HT22) and allows screening for a broad spectrum of compounds that include: activators of HIF transcription; activators of HIF binding to HRE; and effectors of HIF protein stability (PHD inhibitors, pVHL & proteasome inhibitors). The assay was performed the same way as for HIF ODD-luc reporter except the cells were plated at the density of 10,000 cell per well and incubated overnight.

[2] = Iron binding constant, calcein displacement assay; type: physicochemical; conditions: calcein displacement
Description: Calcein displacement assay in the presence of varied concentrations of flavonoids and catechols has been used. Calcein release from its complex with iron was monitored by fluorescence as described in [26].

[3] = system: C57Bl6 mice, MPTP model of Parkinson's disease; test: Stereological counts of Nissl- and TH-positive neurons in SNpc, MPTP model; type: in vivo, mouse; conditions: NDGA 100mg/kg/day, Fig. 7
Method: Acute MPTP-intoxication paradigm was used to test the neuroprotective effects of NDGA using male C57Bl6 mice. In this protocol, 10-week-old C57Bl6 mice (n = 8-10 per group) were divided into four different groups consisting of 1) a control group treated with saline alone; 2) a group treated with MPTP alone; 3) a group treated with NDGA alone and; 4) group treated with NDGA in combination with MPTP. NDGA was dissolved in 1:4 ethanol:neobee oil (a derivative of coconut oil). MPTP 10 mg/kg free base was administered intraperitoneally three times a day every two hours. Animals with NDGA in combination with MPTP were administered NDGA by oral gavage with 50 and 100mg/kg/day body weight of the drug in 100 microliter volume once a day for 4 days before MPTP and once a day for 3 days after MPTP. On the day of MPTP NDGA was administered to mice 2 hours before the initiation of MPTP. Animals belonging to MPTP and control groups received the vehicle (ethanol:neobee oil, 1:4) whereas the drug alone group received respective doses of NDGA at the same frequency. All animals were sacrificed on the 7th day after MPTP. […]

[4] = system: HIF1 ODD-luc reporter (SH-SY5Y cell line); test: HIF1 ODD-luc reporter assay; type: cell-based; conditions: Homo sapiens, SH-SY5Y
Method: SH-SY5Y cell lines stably expressing HIF1 ODD-luc or Neh2-luc reporters were grown in the DMEM/F12 supplemented with GlutaMAX (Thermo Fisher Scientific) containing 10% FBS, 100 U/ml penicillin, and 100 μg/ml streptomycin and plated into 384-well white flat-bottom plates at 7,000 cell/well in 30 µl serum and incubated overnight at 37°C, 5% CO2. The next day compounds were added to a final concentration of 10 µM and the plates were incubated for 3 hours at 37°C. Reporter activation after 3 h incubation with the studied compound was compared to that for ciclopirox (HIF1 ODD-luc reporter) or TBHQ (Neh2-luc reporter), taken as 100%. Luciferase reporter activity was measured with a SteadyGlo reagent from Promega providing stable reading for 1 h.
Cells were plated at the density of 25,000 cell per well using a WellMate multichannel dispenser from Matrix (Thermo Fisher Scientific, Waltham, MA) and grown overnight on DMEM/F12+GlutaMAX (100 µl per well). Then an inhibitor was added, and the plates were incubated for a fixed time interval; the medium was removed, cells lysed, and luciferase activity was measured on a SpectraMax M5e platereader (Molecular Devices, Sunnyvale, CA) with BrightGlo™ reagent (Promega, Madison, WI). The reporter activation was normalized to the background luminescence. The effect of 0.5 mM N-acetylcysteine (NAC) was studied by simultaneous addition of 5 µL of 10 mM stock of NAC in water and 2 µL of 50x stock solutions of a flavonoid in DMSO.

Compound: CC(Cc1ccc(O)c(O)c1)C(C)Cc1ccc(O)c(O)c1 (centres unmarked) [compound 28, 4,4'-(2,3-dimethylbutane-1,4-diyl)dibenzene-1,2-diol]
- fold induction at 10 µM [1]: 2 ± 0.2
- Iron complex Diss. Const [2]: 2.5 ± 0.3 µM
- MPTP-induced loss of total (Nissl-positive) and TH-immunopositive neurons in SNpc [3]: significant attenuation
- EC50 [4]: ~2000 nM
- fold induction at 10 µM ([4]; 3 h, at 10 µM, 3 h incubation, read-out: ODD-luc fold activation): 2
